Calls of active or inactive are those of the source. The rule behind the calls is not given here.
Tests used:
[1] = biological target: Toll-like receptor 3 (Homo sapiens) (UniProt O15455); assay: Agonist activity at human recombinant TLR3 expressed in HEK293 cells at 10 uM by SEAP reporter assay; format: cell-based
[2] = biological target: T1, Toll-like receptor 7 (Homo sapiens) (UniProt Q9NYK1); assay: Agonist activity at human recombinant TLR7 expressed in HEK293 cells at 10 uM by SEAP reporter assay; format: cell-based
T1 sequence (whole entry): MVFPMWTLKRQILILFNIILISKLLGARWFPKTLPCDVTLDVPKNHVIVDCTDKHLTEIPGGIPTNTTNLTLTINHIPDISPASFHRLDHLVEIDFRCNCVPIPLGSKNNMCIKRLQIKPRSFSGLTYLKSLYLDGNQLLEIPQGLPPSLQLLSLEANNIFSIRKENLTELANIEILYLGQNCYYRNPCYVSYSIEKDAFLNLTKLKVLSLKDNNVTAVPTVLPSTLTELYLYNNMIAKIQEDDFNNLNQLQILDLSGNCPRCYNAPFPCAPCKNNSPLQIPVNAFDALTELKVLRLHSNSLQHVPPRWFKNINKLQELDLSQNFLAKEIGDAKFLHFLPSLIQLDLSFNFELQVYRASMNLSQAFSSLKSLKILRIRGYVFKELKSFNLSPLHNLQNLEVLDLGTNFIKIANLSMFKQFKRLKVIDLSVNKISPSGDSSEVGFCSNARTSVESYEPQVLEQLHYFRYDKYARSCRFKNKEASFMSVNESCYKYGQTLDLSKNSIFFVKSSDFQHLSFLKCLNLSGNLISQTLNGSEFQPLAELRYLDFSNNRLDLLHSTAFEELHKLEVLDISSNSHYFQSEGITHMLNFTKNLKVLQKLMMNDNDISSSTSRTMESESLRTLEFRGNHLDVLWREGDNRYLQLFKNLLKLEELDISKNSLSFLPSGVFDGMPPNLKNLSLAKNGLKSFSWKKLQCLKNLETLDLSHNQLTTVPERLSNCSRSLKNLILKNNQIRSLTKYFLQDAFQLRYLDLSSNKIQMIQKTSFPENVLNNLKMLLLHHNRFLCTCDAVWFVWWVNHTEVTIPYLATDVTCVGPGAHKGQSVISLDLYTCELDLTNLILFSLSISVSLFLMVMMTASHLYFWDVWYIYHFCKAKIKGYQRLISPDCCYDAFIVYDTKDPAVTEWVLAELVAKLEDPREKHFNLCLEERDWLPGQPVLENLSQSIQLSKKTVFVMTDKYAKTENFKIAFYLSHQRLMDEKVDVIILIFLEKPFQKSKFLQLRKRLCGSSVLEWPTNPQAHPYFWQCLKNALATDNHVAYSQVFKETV

[3] = biological target: Toll-like receptor 4 (Homo sapiens, UniProt O00206); assay: Agonist activity at human recombinant TLR4 expressed in HEK293 cells coexpressed with mouse MD2 assessed as TNFalpha response by NFkappaB reporter assay; format: cell-based
Chain of Toll-like receptor 4 (O00206 whole entry): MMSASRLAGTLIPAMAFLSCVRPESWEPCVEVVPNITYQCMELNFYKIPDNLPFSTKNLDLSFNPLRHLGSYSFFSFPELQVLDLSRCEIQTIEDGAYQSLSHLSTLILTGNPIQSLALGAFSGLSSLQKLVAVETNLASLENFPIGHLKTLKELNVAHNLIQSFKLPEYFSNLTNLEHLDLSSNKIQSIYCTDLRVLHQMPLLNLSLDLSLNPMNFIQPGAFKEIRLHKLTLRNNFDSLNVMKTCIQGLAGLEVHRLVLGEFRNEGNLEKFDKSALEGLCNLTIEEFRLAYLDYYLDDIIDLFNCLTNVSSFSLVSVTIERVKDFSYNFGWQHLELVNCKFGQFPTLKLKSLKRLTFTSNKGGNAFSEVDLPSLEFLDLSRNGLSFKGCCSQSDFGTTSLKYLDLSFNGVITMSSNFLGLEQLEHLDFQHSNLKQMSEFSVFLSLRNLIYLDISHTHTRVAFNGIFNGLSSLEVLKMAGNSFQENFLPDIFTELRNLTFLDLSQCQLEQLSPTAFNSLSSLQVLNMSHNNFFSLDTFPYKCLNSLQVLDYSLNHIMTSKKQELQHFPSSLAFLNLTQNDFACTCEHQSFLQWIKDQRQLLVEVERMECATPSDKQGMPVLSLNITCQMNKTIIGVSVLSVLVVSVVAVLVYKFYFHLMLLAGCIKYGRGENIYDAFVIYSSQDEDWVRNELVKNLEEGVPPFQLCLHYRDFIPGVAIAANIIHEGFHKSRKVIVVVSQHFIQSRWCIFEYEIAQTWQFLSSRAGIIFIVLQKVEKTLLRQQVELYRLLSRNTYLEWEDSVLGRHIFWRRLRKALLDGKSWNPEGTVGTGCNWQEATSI

[4] = test system: PBMC; assay: Induction of IL-10 production in human PBMC at 10 uM by ELISA; format: functional, cell-based

Chain of Toll-like receptor 3 (Homo sapiens) (O15455 whole entry): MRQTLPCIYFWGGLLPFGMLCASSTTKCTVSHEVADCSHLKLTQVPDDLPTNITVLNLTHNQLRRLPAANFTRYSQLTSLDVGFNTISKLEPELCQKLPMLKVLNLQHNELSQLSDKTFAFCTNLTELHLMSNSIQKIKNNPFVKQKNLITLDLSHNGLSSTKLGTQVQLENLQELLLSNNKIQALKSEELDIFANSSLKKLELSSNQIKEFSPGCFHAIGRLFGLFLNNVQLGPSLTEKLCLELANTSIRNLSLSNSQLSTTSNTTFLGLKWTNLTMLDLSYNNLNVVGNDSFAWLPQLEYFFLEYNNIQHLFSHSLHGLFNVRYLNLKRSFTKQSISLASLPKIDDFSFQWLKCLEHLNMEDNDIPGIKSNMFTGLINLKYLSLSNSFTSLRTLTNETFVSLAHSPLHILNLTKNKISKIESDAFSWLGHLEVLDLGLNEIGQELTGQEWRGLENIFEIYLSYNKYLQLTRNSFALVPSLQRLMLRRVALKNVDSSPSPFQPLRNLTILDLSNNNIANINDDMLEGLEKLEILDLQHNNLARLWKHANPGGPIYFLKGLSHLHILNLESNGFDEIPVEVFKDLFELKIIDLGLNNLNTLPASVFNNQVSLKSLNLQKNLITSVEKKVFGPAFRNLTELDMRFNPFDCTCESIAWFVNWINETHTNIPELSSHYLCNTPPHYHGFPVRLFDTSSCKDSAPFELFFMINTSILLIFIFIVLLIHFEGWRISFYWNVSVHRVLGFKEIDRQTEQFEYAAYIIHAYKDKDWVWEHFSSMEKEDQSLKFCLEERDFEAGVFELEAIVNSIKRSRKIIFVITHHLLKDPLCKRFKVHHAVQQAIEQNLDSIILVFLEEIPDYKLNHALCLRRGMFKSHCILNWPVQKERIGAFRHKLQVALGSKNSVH

## COc1cc([C@@H]2[C@@H](C)[C@H]3[C@@H]2c2c(c4ccccc4[nH]c2=O)OC3(C)C)cc(OC)c1OC
[1]
  Activity: inactive
[2]
  Activity: inactive
[3]
  Activity: inactive
[4]
  Activity: Active

— ChEMBL document CHEMBL3259572, “Euodenine A: a small-molecule agonist of human TLR4” (J Med Chem, 2014)
